Assay [1] has as its system 3T3L1 preadipocytes. Put plainly: Glucose uptake in 3T3L1 preadipocytes treated with E4orf1 analogs. Type of assay: cell-based. As to conditions: analogs 2 μl/ml of media, 24 hr in dark, vs DMSO, repeated 3 times. The method, then:
FIG. 3 illustrates that selected E4orf1 chemical analogs increase glucose uptake. 3T3L1 preadipocytes were treated with dimethyl sulfoxide (DMSO) or insulin or treated with analogs BT324, BT325, BT326, BT327, BT328, and BT329. The treatments were compared using one way analysis of variance (ANOVA) and post hoc Tukey's test. Groups sharing same letters are not statistically significant.
(§1) 3T3L1 preadipocytes (passage number 8 below) were used to treat with analogs. As control, cells were treated with equal volumes of DMSO. As positive control, cells were treated with 100 nM insulin. Cells at 70% confluency were treated with analogs (2 μl/ml of media) in dark for 24 hr. Post 24 hr treatment, cells were used either to determine glucose uptake or to obtain cell lysates for determining pAKT abundance by Western blot analysis.

Assay [2] relates to pAkt/Akt. The assay can be described thus: Western blot for pAkt/Akt in cell lysates of treated 3T3L1 preadipocytes. Type of assay: cell-based. As to conditions: 24 hr incubation, vs DMSO. How it is done:
FIG. 4 illustrates that the E4orf1 chemical analogs that increase glucose uptake also increase pAkt levels—the underlying mechanism for increasing cellular glucose uptake. 3T3L1 preadipocytes were treated with DMSO or insulin or with analogs BT324, BT325, BT327, or BT329. Post 24 hr incubation in the dark, cell lysates were collected and 20 μg of protein was loaded and probed for pAkt/Akt. Band intensities were analyzed using Image J software. Groups sharing same letters are not statistically significant.
as §1
Background: In western blotting, separated proteins are transferred to a membrane and probed.

Assay [3] relates to 3T3-L1 pre-adipocytes, mature adipocytes and murine skeletal muscle cells. Put plainly: In vitro screening of small molecules for cellular glucose uptake. Type of assay: cell-based. To be noted: 20 μM/well, 24 h; for greater glucose uptake compared to control: other replications not presented; for increase in cellular glucose: tested 3 or more times in different cell types. How it is done: Next, over time, Applicants tested cellular glucose uptake with 41 different E4orf1 analog small molecules in 3T3-L1 pre-adipocytes, mature adipocytes and murine skeletal muscle cells. Cells were exposed to 20 μM/well of E4orf1 analogs. Glucose uptake by cells was determined 24 h later. Insulin and human adenovirus Ad36 were used as positive controls for glucose uptake. The * indicates statistical significance after Bonferroni correction for multiple comparisons.
Applicants conducted glucose uptake assays for compounds several separate times. BN #3 and BT #141 had about 70% greater glucose uptake compared to control in other replications not presented herein.

For assay [4], the system named is C57BL/6J male mice on a 60% kcal high-fat diet. The assay can be described thus: Glucose tolerance test (GTT) in high-fat diet fed mice. To be noted: daily injection of 4 mg/kg, GTT 7 and/or 14 days post-treatment, vs DMSO control mice. Type of assay: in vivo. How it is done:
(§2) To determine improvement in glucose disposal in vivo, 10 wk old C57BL/6J male mice (Jax Laboratories) on a 60% kcal high-fat diet (Research diets, Inc.) since 6 weeks of age were divided into weight-matched groups. In individual experiments, mice were treated with daily injection of 4 mg/kg of respective small molecules (BN #3, BT #141, BT #143 and BT #181) or DMSO alone as control. Improvement in glycemic control was determined by glucose tolerance test (GTT) performed at baseline (prior to treatment), 7 days and/or 14 days post-treatment. Insulin-independent action of the small molecules was also measured by collecting blood during GTT and quantifying serum insulin by enzyme-linked immunosorbent assay (ELISA).

Assay [5] shares this test system. Put plainly: Serum insulin by ELISA during GTT in high-fat diet fed mice. Type of assay: in vivo. To be noted: daily injection of 4 mg/kg, vs DMSO control mice. The method, then: as §2

The structures appear in SMILES notation. “Also recorded” adds a separate entry of the source.

On to `O=C(O)c1cc2cc(Cl)ccc2[nH]c1=O` [BT327], for which the glucose uptake result in assay [1] is given as “significantly increased glucose uptake”. Further, in assay [2], the pAkt/Akt result is given as “significant increase in pAkt/Akt”.
For `O=C(O)c1cc2cc(Cl)ccc2oc1=O` [BT325], in that order: “significantly increased glucose uptake” and “significant increase in pAkt/Akt”.
`CC1(C)OB(c2ccc(C(C#N)Nc3ccc(O)cc3)cc2)OC1(C)C` (stereo not shown) [BT #141]: in assay [3], the “greater glucose uptake compared to control” value is “about 70%” and the “increase in cellular glucose” value is “consistently significant increase in cellular glucose”. For the same compound, the “glucose clearance / glycemic control (GTT)” value in assay [4] (4 mg/kg) is given as “improved glycemic control”. Also, the “glucose clearance / glycemic control (GTT)” value in assay [4] (listed as BN #141, 4 mg/kg) is recorded as “improved glucose disposal”.
For the compound `C#Cc1ccc(/C(N)=N/O)cc1` [BT329], the glucose uptake result in assay [1] is “significantly increased glucose uptake”. The pAkt/Akt entry in assay [2] is on record as “significant increase in pAkt/Akt”.
With `Cc1cc(C(C#N)Nc2ccc(B3OC(C)(C)C(C)(C)O3)cc2)no1` (stereo not shown) [BN #3], in assay [3], the “greater glucose uptake compared to control” value is “about 70%” and the “increase in cellular glucose” value is reported as “consistently significant increase in cellular glucose”. In assay [4] (4 mg/kg), the “glucose clearance / glycemic control (GTT)” value is on record as “improved glycemic control; also recorded: improved glucose disposal”. The insulin secretion entry in assay [5] is reported as “lower insulin secretion”.
With `COC(=O)c1cc2cc(Cl)ccc2oc1=O` [BT324], the glucose uptake entry in assay [1] is “significantly increased glucose uptake”. Besides, in assay [2], the pAkt/Akt result was “significant increase in pAkt/Akt”.

The values above are taken from patent publication US20220071953A1, “Small Molecule Analogs Of The Protein E4ORF1 In The Treatment And Prevention Of Metabolic Disorders” (Texas Tech University System, priority 2019, published 2022).
